Measured values published in US11026943B2, “Aminoquinoline derivatives and uses thereof” (UNIVERSITY OF DELHI, priority 2012, dated 2021).

Tests used:
aphakia (ak/ak) mice = assay: Behavioral studies in ak/ak mice (Pole, Challenging Beam, Cylinder, Rotarod) and SN histology; assay type: in vivo, mouse
Description: Either 20 mg/kg of AQ (AQ group) or the saline (Saline group) was intraperitoneally injected (I.P.) twice per day for two weeks. 8 mg/kg of L-DOPA (L-DOPA group) in 0.5% DMSO was injected (I.P.) once per day for two weeks. The L-DOPA group was given 12.5 mg/kg benserazide 20 min prior to administration of L-DOPA.
Each ak mouse was randomly assigned into one of three experiment groups, (1) saline group (negative control; n=8), (2) L-DOPA group (positive control; n=8), (3) AQ group (n=10). Each WT or rdl mouse was randomly divided into two groups, (1) saline group (n=8) and (2) AQ group (n=10). Pole Test, Challenging Beam Traversal Test, and Cylinder Test were performed at two time points, immediately and one month after two weeks of either AQ or saline injection. Each mouse ran each task twice. Rota rod test was performed immediately after two weeks of either drug or saline injection. Acclimation and data recording process were identical to the rat study described above. All tasks were performed as described previously^11 and the short description of each task is as follows.
A vertical wooden pole 50 cm in length and 1 cm in diameter was used for Pole Test. Each mouse was gently placed head upwards on top of the pole which is placed on each animal's home cage. Each mouse ran tree trials per session during 2 training sessions. On the testing day, mice ran three trials. Two parameters (the meantime to orient downward and the total travel mean time) were used for the statistical analysis.
A 1 m length of plastic beam was used for Challenging Beam Traversal Test. The starting width of the beam was 3.5 cm and it gradually narrowed in 1 c increments to 0.5 cm at the other end site of the beam. Animals were trained to walk from the wide end to the other end for 2 sessions, three trials per session before testing. A mesh grid was removed during the training period. On the testing day, a mesh grid (1 cm square) covering the beam surface was equipped leaving a […] room between the grid and the beam surface. On the testing day, mice ran three trials. Two parameters (the mean number of steps taken by each animal and the mean time to traverse across three trials) were collected and used for statistical analysis.
A small transparent cylinder (height, 15.5 cm; diameter, 12.7 cm) was used to evaluate somatosensory motor function. Mice were placed in the cylinder and their rears were counted for 5 minutes. The forelimb touching the Plexiglas wall (a vertical movement) is defined as a full rear. The mean number of forelimb use was calculated for the statistical analysis. […]
The Rota rod equipment (Med-Associates, Inc, Albans, Vt., USA) was used to measure motor coordination. […] The mean latency to fall off from the Rota rod was measured for the statistical analysis. […]

6-OHDA-lesioned rats = assay: 6-OHDA-lesioned rat model of PD (amphetamine rotation, TH+ and Iba-1 counts); assay type: in vivo
Description: Cells were fixed in 4% paraformaldehyde (PFA) for 20 min, washed and then incubated with blocking buffer [PBS, 10% goat serum (Invitrogen), 0.3% Triton X-100 (Sigma)] for 1 hour. Cells were then incubated overnight at 4° C. with primary antibodies with the primary antibody in PBS containing 1% normal goat serum and 0.1% Triton X-100. A rabbit polyclonal anti-TH antibody (1:500; Pel-Freez, Rogers, Ark.) was used as a primary antibody. Following washes with PBS, appropriate fluorescence-tagged secondary antibodies (Jackson Immunoresearch Laboratories, West Grove, Pa.) were used for visualization. Stained samples were mounted in […] with DAPI mounting solution (Vector Laboratories INC., Burlingame, Calif.) and photographed using epifluorescence microscope (Leica). […] The tissues were washed three times in PBS and incubated for 2 h with the secondary fluorescence-conjugated goat anti-mouse and rabbit antibody (DAKO, Denmark, Cy3, FITC, both dilutions at 1:1,000) and tissues were washed and mounted in Vectorshield. […] Tissues were visualized using fluorescence microscopy. […] The protection percentage of total TH^+ cells in the lesioned hemisphere of each rat brain was calculated by dividing total TH^+ cells in the intact hemisphere of each rat brain and multiplying […]. […]

With CCN(CC)Cc1cc(Nc2ccnc3cc(Cl)ccc23)ccc1O [AQ, amodiaquine] the “motor deficits in Pole, Challenging Beam, Cylinder and Rotarod tests” value (aphakia (ak/ak) mice; 2 weeks of AQ 20 mg/kg i.p. twice per day) was “significantly improved”, the “activated microglia (CD11b) in the SN” value (aphakia (ak/ak) mice; after AQ for 2 weeks) was “reduced to the level of wild type mice” and the “number of TH+ neurons in ak/ak mice” value (aphakia (ak/ak) mice; data not shown) was “not detectably altered”. For the same compound, the “6-OHDA-induced (amphetamine) rotation behavior” value (6-OHDA-lesioned rats; 4 and 6 weeks post lesion, AQ 20 mg/kg i.p. twice per day, 2 weeks) was “significantly ameliorated” and the “numbers of Iba-1+ microglia in ipsilateral SN and STR” value (6-OHDA-lesioned rats; after AQ treatment) was “decreased to the levels of the contralateral sides”.
